Read-outs that look alike come from different tables or passages of the source.

One data set relates to HIV-IIIb. In words: Test A: Antiviral Assay in MT4 Cells. Format: cell-based, HIV-1. To be noted: for inhibition at 0.01 µM: read-out: % inhibition at 0.01 μM; for inhibition at 0.2 µM: read-out: % inhibition at 0.20 μM. How it is done:
(§1) MT-4 cells were next mixed with HIV-IIIb at a multiplicity of infection (m.o.i.) of 0.003 for 1 hour, after which time 35 μL of virus/cell mixture (2000 cells) was immediately added to each well containing 40 μL of diluted compound. The plates were then incubated at 37° C. for 5 days. After 5 days of incubation, 25 μl of 2× concentrated CellTiter-Glo Reagent (catalog #G7571, Promega Biosciences, Inc., Madison, Wis.) was added to each well containing MT-4 cells. Cell lysis was carried out by incubating at room temperature for 10 min and then chemiluminescence was read.

The nature of data set [1]: Test B: Cytotoxicity Assay (same protocol as Test A, uninfected cells). Format: cell-based. To be noted: human, uninfected MT-4 cells, CellTiter-Glo. As for the experimental part: as §1, with “read. […] Compound cytotoxicity and the corresponding CC50 values was determined using the same protocol as described in the antiviral assay (Test A) except that uninfected cells were used.” for “read.”
(In general: Cellular ATP, detected with luciferase, serves as a proxy for viable cell number.)

[2] abbreviates: Human immunodeficiency virus 1, MT4, 120 h, inhibition of virus-induced cell killing, from dose response curve at 0.01 μM (10 nM), MT-4 cells, HIV-IIIb, 5 days, values normalized to 100%.
[3] abbreviates: Human immunodeficiency virus 1, MT4, 120 h, inhibition of virus-induced cell killing, from dose response curve at 0.20 μM (200 nM), MT-4 cells, HIV-IIIb, 5 days, values normalized to 100%.
Setting [4] is: Human immunodeficiency virus 1, IIIB, MT4, 120 h.

With `CC1(S(=O)(=O)Nc2nn(CC(F)F)c3c(-c4ccc(C#CC(C)(C)S(=O)(=O)C5CC5)nc4[C@H](Cc4cc(F)cc(F)c4)NC(=O)Cn4nc(C(F)F)c5c4C(F)(F)[C@@H]4C[C@H]54)ccc(Cl)c23)CC1` [Example 2F, N—((S)-1-(3-(4-chloro-1-(2,2-difluoroethyl)-3-((1-methylcyclopropane)-1-sulfonamido)-1H-indazol-7-yl)-6-(3-(cyclopropylsulfonyl)-3-methylbut-1-yn-1-yl)pyridin-2-yl)-2-(3,5-difluorophenyl)ethyl)-2-((3bS,4aR)-3-(difluoromethyl)-5,5-difluoro-3b,4,4a,5-tetrahydro-1H-cyclopropa[3,4]cyclopenta[1,2-c]pyrazol-1-yl)acetamide], in the data set with HIV-IIIb (setting [2]), the inhibition (usually the relative decrease from the control value, in per cent) at 0.01 µM stood at 100%. For the same compound, the inhibition at 0.2 µM with HIV-IIIb (setting [3]) was 100%. In data set [1], the cytotoxic concentration (CC50) (in general, the concentration giving 50% cytotoxicity) at 5 days is > 57.1 µM.
On to `Cn1nc(Nc2nnc(C(C)(C)O)o2)c2c(Cl)ccc(-c3ccc(C#CC(C)(C)S(=O)(=O)C4CC4)nc3[C@H](Cc3cc(F)cc(F)c3)NC(=O)Cn3nc(C(F)(F)F)c4c3C(F)(F)[C@@H]3C[C@H]43)c21` [Example 3F, N—((S)-1-(3-(4-chloro-3-((5-(2-hydroxypropan-2-yl)-1,3,4-oxadiazol-2-yl)amino)-1-methyl-1H-indazol-7-yl)-6-(3-(cyclopropylsulfonyl)-3-methylbut-1-yn-1-yl)pyridin-2-yl)-2-(3,5-difluorophenyl)ethyl)-2-((3bS,4aR)-5,5-difluoro-3-(trifluoromethyl)-3b,4,4a,5-tetrahydro-1H-cyclopropa[3,4]cyclopenta[1,2-c]pyrazol-1-yl)acetamide], for which the inhibition at 0.01 µM in the data set with HIV-IIIb (setting [2]) amounted to 100%. Moreover, the inhibition at 0.2 µM in the data set on HIV-IIIb (setting [3]) amounted to 100%. The same compound returned a CC50 at 5 days in data set [1] of 21.8 µM.
Take `Cn1nc(NS(C)(=O)=O)c2c(Cl)ccc(-c3ccc(C#CC(C)(C)S(=O)(=O)C4CC4)nc3[C@H](Cc3cc(F)cc(F)c3)NC(=O)Cn3nc(C(F)F)c4c3C(F)(F)[C@@H]3C[C@H]43)c21` [Example 4]: in the data set on HIV-IIIb (setting [4]), the inhibition at 0.01 µM is 92% and the inhibition at 0.2 µM was 92%.
For the compound `CCS(=O)(=O)Nc1nn(C)c2c(-c3ccc(C#CC(C)(C)S(=O)(=O)C4CC4)nc3[C@H](Cc3cc(F)cc(F)c3)NC(=O)Cn3nc(C(F)F)c4c3C(F)(F)[C@@H]3C[C@H]43)ccc(Cl)c12` [Example 6], the inhibition at 0.01 µM in the data set on HIV-IIIb (setting [2]) stood at 100%. For the same compound, the inhibition at 0.2 µM in the data set with HIV-IIIb (setting [3]) is 100%. Moreover, the CC50 at 5 days in data set [1] was > 57.1 µM.
Regarding `CCS(=O)(=O)Nc1nn(C)c2c(-c3ccc(C#CC(C)(C)S(=O)(=O)C4CC4)nc3[C@H](Cc3cc(F)cc(F)c3)NC(=O)Cn3nc(C(F)(F)F)c4c3C(F)(F)[C@@H]3C[C@H]43)ccc(Cl)c12` [Example 7], in the data set on HIV-IIIb (setting [2]), the inhibition at 0.01 µM was 94%. For the same compound, the inhibition at 0.2 µM with HIV-IIIb (setting [3]) worked out at 94%. Besides, the CC50 at 5 days in data set [1] is > 57.1 µM.
In the case of `CC(C)(C#Cc1ccc(-c2ccc(Cl)c3c(NS(C)(=O)=O)nn(CC(F)F)c23)c([C@H](Cc2cc(F)cc(F)c2)NC(=O)Cn2nc(C(F)F)c3c2C(F)(F)[C@@H]2C[C@H]32)n1)S(=O)(=O)C1CC1` [Example 8], in the data set on HIV-IIIb (setting [2]), the inhibition at 0.01 µM came out at 94%. Besides, the inhibition at 0.2 µM in the data set on HIV-IIIb (setting [3]) was 94%. Further, the CC50 at 5 days in data set [1] is > 57.1 µM.
On to `CCS(=O)(=O)Nc1nn(CC(F)F)c2c(-c3ccc(C#CC(C)(C)S(=O)(=O)C4CC4)nc3[C@H](Cc3cc(F)cc(F)c3)NC(=O)Cn3nc(C(F)F)c4c3C(F)(F)[C@@H]3C[C@H]43)ccc(Cl)c12` [Example 9], for which the inhibition at 0.01 µM with HIV-IIIb (setting [2]) came to 96%. Further, the inhibition at 0.2 µM in the data set on HIV-IIIb (setting [3]) was 96%. The 50% cytotoxic concentration (CC50) at 5 days in data set [1] was > 57.1 µM.
`Cn1nc(Nc2nnc(C(C)(C)O)o2)c2c(Cl)ccc(-c3ccc(C#CC(C)(C)S(=O)(=O)C4CC4)nc3[C@H](Cc3cc(F)cc(F)c3)NC(=O)Cn3nc(C(F)F)c4c3C(F)(F)[C@@H]3C[C@H]43)c21` [Example 10]: the inhibition at 0.01 µM with HIV-IIIb (setting [2]) worked out at 100%. The inhibition at 0.2 µM with HIV-IIIb (setting [3]) stood at 100%. For the same compound, in data set [1], the CC50 at 5 days turned out to be 18.5 µM.
In the case of `CCS(=O)(=O)Nc1nn(CC(F)F)c2c(-c3ccc(C#CC(C)(C)S(=O)(=O)C4CC4)nc3[C@H](Cc3cc(F)cc(F)c3)NC(=O)Cn3nc(C(F)(F)F)c4c3C(F)(F)[C@@H]3C[C@H]43)ccc(Cl)c12` [Example 11], in the data set with HIV-IIIb (setting [2]), the inhibition at 0.01 µM stood at 92%. In the data set with HIV-IIIb (setting [3]), the inhibition at 0.2 µM was 92%. Also, the CC50 at 5 days in data set [1] was > 57.1 µM.
For `Cn1nc(NS(=O)(=O)C2CC2)c2c(Cl)ccc(-c3ccc(C#CC(C)(C)S(=O)(=O)C4CC4)nc3[C@H](Cc3cc(F)cc(F)c3)NC(=O)Cn3nc(C(F)F)c4c3C(F)(F)[C@@H]3C[C@H]43)c21` [Example 12], in the data set on HIV-IIIb (setting [2]), the inhibition at 0.01 µM turned out to be 94%. In addition, in the data set with HIV-IIIb (setting [3]), the inhibition at 0.2 µM turned out to be 94%. Besides, the CC50 at 5 days in data set [1] was > 57.1 µM.
For `Cn1nc(NS(=O)(=O)C2CC2)c2c(Cl)ccc(-c3ccc(C#CC(C)(C)S(=O)(=O)C4CC4)nc3[C@H](Cc3cc(F)cc(F)c3)NC(=O)Cn3nc(C(F)(F)F)c4c3C(F)(F)[C@@H]3C[C@H]43)c21` [Example 13], the inhibition at 0.01 µM in the data set with HIV-IIIb (setting [2]) was determined as 100%. In addition, in the data set with HIV-IIIb (setting [3]), the inhibition at 0.2 µM amounted to 100%. In data set [1], the CC50 at 5 days is > 57.1 µM.
With `Cn1nc(NS(=O)(=O)CC2CC2)c2c(Cl)ccc(-c3ccc(C#CC(C)(C)S(=O)(=O)C4CC4)nc3[C@H](Cc3cc(F)cc(F)c3)NC(=O)Cn3nc(C(F)F)c4c3C(F)(F)[C@@H]3C[C@H]43)c21` [Example 14], the inhibition at 0.01 µM in the data set with HIV-IIIb (setting [2]) worked out at 100%. In addition, the inhibition at 0.2 µM in the data set with HIV-IIIb (setting [3]) was 100%. Also, the CC50 at 5 days in data set [1] was > 57.1 µM.
On to `Cn1nc(NS(=O)(=O)CC2CC2)c2c(Cl)ccc(-c3ccc(C#CC(C)(C)S(=O)(=O)C4CC4)nc3[C@H](Cc3cc(F)cc(F)c3)NC(=O)Cn3nc(C(F)(F)F)c4c3C(F)(F)[C@@H]3C[C@H]43)c21` [Example 15], for which the inhibition at 0.01 µM in the data set with HIV-IIIb (setting [2]) turned out to be 98%. Besides, the inhibition at 0.2 µM in the data set on HIV-IIIb (setting [3]) came to 98%. In addition, in data set [1], the CC50 at 5 days was > 57.1 µM.
Regarding `CC(C)(C#Cc1ccc(-c2ccc(Cl)c3c(NS(=O)(=O)C4CC4)nn(CC(F)F)c23)c([C@H](Cc2cc(F)cc(F)c2)NC(=O)Cn2nc(C(F)F)c3c2C(F)(F)[C@@H]2C[C@H]32)n1)S(=O)(=O)C1CC1` [Example 16], the inhibition at 0.01 µM in the data set with HIV-IIIb (setting [2]) worked out at 98%. In the data set with HIV-IIIb (setting [3]), the inhibition at 0.2 µM is 98%. Further, the CC50 at 5 days in data set [1] was > 57.1 µM.
`CC(C)(C#Cc1ccc(-c2ccc(Cl)c3c(NS(C)(=O)=O)nn(CC(F)(F)F)c23)c([C@H](Cc2cc(F)cc(F)c2)NC(=O)Cn2nc(C(F)F)c3c2C(F)(F)[C@@H]2C[C@H]32)n1)S(=O)(=O)C1CC1` [Example 17]: the inhibition at 0.01 µM with HIV-IIIb (setting [2]) stood at 98%. In addition, the inhibition at 0.2 µM in the data set on HIV-IIIb (setting [3]) stood at 98%. Besides, the CC50 at 5 days in data set [1] is > 24 µM.
With `CC(C)(C#Cc1ccc(-c2ccc(Cl)c3c(NS(C)(=O)=O)nn(C4COC4)c23)c([C@H](Cc2cc(F)cc(F)c2)NC(=O)Cn2nc(C(F)F)c3c2C(F)(F)[C@@H]2C[C@H]32)n1)S(=O)(=O)C1CC1` [Example 18], the inhibition at 0.01 µM in the data set on HIV-IIIb (setting [2]) turned out to be 100%. Besides, the inhibition at 0.2 µM in the data set with HIV-IIIb (setting [3]) came out at 100%. In data set [1], this compound had a CC50 at 5 days of 41.6 µM.
As for `CC(C)(C#Cc1ccc(-c2ccc(Cl)c3c(NS(C)(=O)=O)nn(C4COC4)c23)c([C@H](Cc2cc(F)cc(F)c2)NC(=O)Cn2nc(C(F)(F)F)c3c2C(F)(F)[C@@H]2C[C@H]32)n1)S(=O)(=O)C1CC1` [Example 19], the inhibition at 0.01 µM with HIV-IIIb (setting [2]) came out at 97%. For the same compound, the inhibition at 0.2 µM in the data set with HIV-IIIb (setting [3]) is 97%. In addition, in data set [1], the CC50 at 5 days was > 57.1 µM.
As for `Cn1nc(NS(=O)(=O)C2(C)CC2)c2c(Cl)ccc(-c3ccc(C#CC(C)(C)S(=O)(=O)C4CC4)nc3[C@H](Cc3cc(F)cc(F)c3)NC(=O)Cn3nc(C(F)F)c4c3C(F)(F)[C@@H]3C[C@H]43)c21` [Example 20], the inhibition at 0.01 µM in the data set with HIV-IIIb (setting [2]) is 89%. Also, the inhibition at 0.2 µM with HIV-IIIb (setting [3]) is 89%. Also, the CC50 at 5 days in data set [1] is > 57.1 µM.
Take `Cn1nc(NS(=O)(=O)C2(C)CC2)c2c(Cl)ccc(-c3ccc(C#CC(C)(C)S(=O)(=O)C4CC4)nc3[C@H](Cc3cc(F)cc(F)c3)NC(=O)Cn3nc(C(F)(F)F)c4c3C(F)(F)[C@@H]3C[C@H]43)c21` [Example 21]: the inhibition at 0.01 µM with HIV-IIIb (setting [2]) is 100%. Also, the inhibition at 0.2 µM in the data set with HIV-IIIb (setting [3]) came out at 100%. For the same compound, the CC50 at 5 days in data set [1] is > 57.1 µM.
Take `CC1(S(=O)(=O)Nc2nn(CC(F)F)c3c(-c4ccc(C#CC(C)(C)S(=O)(=O)C5CC5)nc4[C@H](Cc4cc(F)cc(F)c4)NC(=O)Cn4nc(C(F)(F)F)c5c4C(F)(F)[C@@H]4C[C@H]54)ccc(Cl)c23)CC1` [Example 22]: the inhibition at 0.01 µM in the data set with HIV-IIIb (setting [2]) worked out at 94%. Also, the inhibition at 0.2 µM in the data set on HIV-IIIb (setting [3]) amounted to 94%. Moreover, the 50% cytotoxic concentration (CC50) at 5 days in data set [1] is > 57.1 µM.
As for `CC(C)(C#Cc1ccc(-c2ccc(Cl)c3c(NS(=O)(=O)C4CC4)nn(CC(F)F)c23)c([C@H](Cc2cc(F)cc(F)c2)NC(=O)Cn2nc(C(F)(F)F)c3c2C(F)(F)[C@@H]2C[C@H]32)n1)S(=O)(=O)C1CC1` [Example 23], in the data set with HIV-IIIb (setting [2]), the inhibition at 0.01 µM amounted to 100%. In addition, the inhibition at 0.2 µM in the data set on HIV-IIIb (setting [3]) is 100%. For the same compound, in data set [1], the CC50 at 5 days is > 57.1 µM.

For the origin of these results see US11753399B2, “Therapeutic compounds” (Gilead Sciences, Inc., priority 2018, dated 2023).
